Assay results from patent US12435091B2, “RNA-binding protein multimerization inhibitors and methods of use thereof” (THE UAB RESEARCH FOUNDATION, priority 2020, dated 2025).
Like-named read-outs stand apart in the source and are kept apart here.

Columns and labels:
[1] = tested on: U251 cells expressing Fluc construct; experiment: control Fluc (full length luciferase) reporter assay in U251 cells; type: cell-based; conditions: for inhibition at 50 µM / inhibition at 25 µM / inhibition at 100 µM: Homo sapiens, U-251, 6 h, read-out: Fluc Imax % Inh; for inhibition at 50 µM: Concn 50 uM; for inhibition at 25 µM: Concn 25 uM; for inhibition at 100 µM: Concn 100 uM
Protocol: The oncogenic activity of HuR is driven by subcellular localization into the cytoplasm and formation of multimers of HuR. To develop cell based assays to characterize the ability of small molecules to disrupt this process, a split luciferase assay detecting the formation of HuR dimers was developed. The assays were performed in 96 well plates with clear bottom (Corning Inc., Corning, NY). Cells with designed constructs (30,000-50,000 in number) were plated per well; the constructs were induced by doxycycline (0.75 ug/ml) for 48 hours. The evaluated compounds at different concentrations and the corresponding vehicle as the control were administered for 6 hours. The luminescence signals were detected by using InfinitiM200 plate reader (TECAN, Morrisville, NC) in the presence of the luciferase substrate luciferin (D-Luciferin, potassium salt), which was purchased from GoldBio (St Louis, MO). A multichannel pipette (XL 3000I™, Denville Scientific, South Plainfield, NJ) was used in all procedures to ensure the experiment quality. […]
(§1) Squares represent luminescence signal from reporter representing HuR dimers (U251 cells co-expressing HuR-Nluc and HuR-Cluc constructs); circles represent luminescence signal from control reporter (U251 cells expressing Fluc construct). Results are shown as mean+SD.

HuR = biological target: T1, HuR (Homo sapiens, UniProt Q15717); experiment: cell-based split firefly luciferase-HuR dimerization assay; conditions: for IC50: read-out: HuR IC50
T1 construct: expressed in transfected cells; host or cells: U251 glioma cells, doxycycline-inducible constructs
T1 sequence (Q15717 whole entry): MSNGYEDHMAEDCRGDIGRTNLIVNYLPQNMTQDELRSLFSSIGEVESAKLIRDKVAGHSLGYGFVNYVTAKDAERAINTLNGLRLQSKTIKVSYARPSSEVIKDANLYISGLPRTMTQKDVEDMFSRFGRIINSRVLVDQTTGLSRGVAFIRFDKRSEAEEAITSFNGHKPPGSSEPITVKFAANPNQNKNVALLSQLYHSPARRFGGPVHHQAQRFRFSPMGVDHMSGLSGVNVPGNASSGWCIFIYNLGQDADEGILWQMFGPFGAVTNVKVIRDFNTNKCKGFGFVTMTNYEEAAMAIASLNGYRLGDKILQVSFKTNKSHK
Protocol: The oncogenic activity of HuR is driven by subcellular localization into the cytoplasm and formation of multimers of HuR. To develop cell based assays to characterize the ability of small molecules to disrupt this process, a split luciferase assay detecting the formation of HuR dimers was developed. The assays were performed in 96 well plates with clear bottom (Corning Inc., Corning, NY). Cells with designed constructs (30,000-50,000 in number) were plated per well; the constructs were induced by doxycycline (0.75 ug/ml) for 48 hours. The evaluated compounds at different concentrations and the corresponding vehicle as the control were administered for 6 hours. The luminescence signals were detected by using InfinitiM200 plate reader (TECAN, Morrisville, NC) in the presence of the luciferase substrate luciferin (D-Luciferin, potassium salt), which was purchased from GoldBio (St Louis, MO). A multichannel pipette (XL 3000I™, Denville Scientific, South Plainfield, NJ) was used in all procedures to ensure the experiment quality.
The assay used the coding sequence of HuR in frame with the N-terminus of firefly luciferase or the C-terminus as depicted in FIG. 2A. When HuR forms dimers in this case, luciferase is generated and with luciferin present, luminescence is generated.
as §1

[2] = U251 cells co-expressing HuR-Nluc and HuR-Cluc, 6 hours of treatment
[3] = split luciferase HuR dimerization assay, compounds administered for 6 hours

Row | SMILES | inhibition at 50 µM [1] [%] | HuR N/C Imax % Inh (HuR; Concn 50 uM) [%] | IC50 (HuR; [2]) [µM] | IC50 (HuR; [3]) [µM] | other results
1 | c1ccc(CNc2ccc3ncc(-c4ccc5[nH]ncc5c4)n3n2)cc1 [Compound 47, N-Benzyl-3-(1H-indazol-5-yl)imidazo[1,2-b]pyridazin-6-amine] | 24 | 93 | 3 | 3 | 
2 | CN(c1ccc2ncc(-c3ccc4nccn4c3)n2n1)C1CCOCC1 [Compound 18, 3-(Imidazo[1,2-a]pyridin-6-yl)-N-methyl-N-(tetrahydro-2H-pyran-4-yl)imidazo[1,2-b]pyridazin-6-amine] | 6 | 89 | 3 | 3 | 
3 | c1cc2[nH]ncc2cc1-c1cnc2ccc(OC3CCOCC3)nn12 [Compound 57, 3-(1H-Indazol-5-yl)-6-((tetrahydro-2H-pyran-4-yl)oxy)imidazo[1,2-b]pyridazine] | 12 | 89 |  | 2 | 
4 | Cc1ccc(S(=O)(=O)NC(C(=O)Oc2ccc3c4c(c(=O)oc3c2C)CCC4)c2ccccc2)cc1 (stereo not shown) [SRI-43651] | 0 | 0 |  |  | 
5 | CN(c1ccc2ncc(-c3ccc4[nH]cnc4c3)n2n1)C1CCOCC1 [Compound 37, 3-(1H-Benzo[d]imidazol-5-yl)-N-methyl-N-(tetrahydro-2H-pyran-4-yl)imidazo[1,2-b]pyridazin-6-amine] | 14 | 87 | 8 | 8 | 
6 | CCC(C)NS(=O)(=O)c1ccc2oc(=O)ccc2c1 (stereo not shown) [SRI-43652] | 0 | 0 |  |  | 
7 | c1cc2[nH]ncc2cc1-c1cnc2ccc(N3CCOCC3)nn12 [Compound 51, 4-(3-(1H-Indazol-5-yl)imidazo[1,2-b]pyridazin-6-yl)morpholine] | 27 | 87 | 7 | 7 | 
8 | COc1ncccc1-c1cnn2ccc(N3CCN(C(=O)OC(C)C)CC3)nc12 [SRI-43414] | 28 | 45 | > 50 |  | 
9 | c1cc2[nH]ncc2cc1-c1cnc2ccc(NC3CCOCC3)nn12 [Compound 39, 3-(1H-Indazol-5-yl)-N-(tetrahydro-2H-pyran-4-yl)imidazo[1,2-b]pyridazin-6-amine] |  |  |  | 0.3 | inhibition at 25 µM [1]: 28%; HuR N/C Imax % Inh (HuR; Concn 25 uM): 94%
10 | CCCN(C)c1ccc2ncc(-c3cnc4[nH]ncc4c3)n2n1 [Compound 56, N-Methyl-N-propyl-3-(1H-pyrazolo[3,4-b]pyridin-5-yl)imidazo[1,2-b]pyridazin-6-amine] | 5 |  |  |  | 
11 | Clc1ncc2nnn(-c3ccc4cn[nH]c4c3)c2n1 [SRI-42123] | 0 | 0 |  |  | 
12 | CCCN(C)c1ccc2ncc(-c3ccc4[nH]ncc4c3)n2n1 [Compound 49, 3-(1H-Indazol-5-yl)-N-methyl-N-propylimidazo[1,2-b]pyridazin-6-amine] |  |  | 0.6 | 0.6 | inhibition at 100 µM [1]: 12%; HuR N/C Imax % Inh (HuR; Concn 100 uM): 89%
13 | Clc1ccc2ncc(-c3ccc4cn[nH]c4c3)n2n1 [SRI-43183] |  |  |  |  | inhibition at 100 µM [1]: 20%; HuR N/C Imax % Inh (HuR; Concn 100 uM): 76%
14 | COc1ccc(-c2[nH]ncc2C(=O)NCC2CC2)cc1Cl [SRI-43649] | 0 | 0 |  |  | 
15 | CN(c1ccc2ncc(-c3ccc4cnn(C)c4c3)n2n1)C1CCOCC1 [Compound 21, N-Methyl-3-(1-methyl-1H-indazol-6-yl)-N-(tetrahydro-2H-pyran-4-yl)imidazo[1,2-b]pyridazin-6-amine] | 28 | 71 | 3.4 | 3.4 | 
16 | CN(CCNc1ccc2ncc(-c3ccc(C(N)=O)cc3)n2n1)C(=O)OC(C)(C)C [SRI-43415] | 9 | 57 | 40 |  | 
17 | c1nn(C2CCOCC2)cc1Nc1ncc2nnn(-c3ccc4cn[nH]c4c3)c2n1 [Compound A-92] | 32 | 93 | 4.5 |  | decrease of luminescence signal from cells overexpressing the control Fluc construct ([1]; 6 hours, represents the cytotoxic effect): 32±7%; maximum inhibition of HuR dimerization (HuR; after 6 hours of cell treatment): 93±2%
18 | O=C(c1ccc2nsnc2c1)N1CCN(C(=O)C2CC2c2cccs2)CC1 (stereo not shown) [SRI-43650] | 0 | 0 |  |  | 
19 | CN1CCN(c2ccc3ncc(-c4ccc5[nH]ncc5c4)n3n2)CC1 [Compound 52, 3-(1H-Indazol-5-yl)-6-(4-methylpiperazin-1-yl)imidazo[1,2-b]pyridazine] | 13 | 90 | 8 | 8 | 
20 | Cc1cc(-c2cnn3c(NC[C@H]4C[C@@](C)(O)C4)cc(Oc4cccnc4)nc23)ccc1C(=O)NC1CC1 [SRI-41646] |  |  | > 100 |  | inhibition at 100 µM [1]: 15%; HuR N/C Imax % Inh (HuR; Concn 100 uM): 3%
21 | CN(c1ccc2ncc(-c3ccc4[nH]ncc4c3)n2n1)C1CCOCC1 [Compound 40, 3-(1H-Indazol-5-yl)-N-methyl-N-(tetrahydro-2H-pyran-4-yl)imidazo[1,2-b]pyridazin-6-amine] |  |  |  | 0.3 | inhibition at 25 µM [1]: 23%; HuR N/C Imax % Inh (HuR; Concn 25 uM): 90%
22 | O=C(CCn1ccc(=O)[nH]c1=O)N1CCN(C(=O)C2CC2c2ccc3c(c2)OCO3)CC1 (stereo not shown) [SRI-43654] | 0 | 0 |  |  | 
23 | O=C(C1CCCC1)N1CCN(C(=O)C2CC2c2ccc3c(c2)OCO3)CC1 (stereo not shown) [SRI-43655] | 10 | 28 | > 50 |  | 
24 | CN(c1ccc2ncc(-c3ccc4cn[nH]c4c3)n2n1)C1CCCCC1 [Compound 22, N-Cyclohexyl-3-(1H-indazol-6-yl)-N-methylimidazo[1,2-b]pyridazin-6-amine] | 32 | 93 | 9 | 9 | 
25 | Brc1cnc2ccc(NC3CCOCC3)nn12 [SRI-42219] | 32 | 82 | 20 to 22 |  | 
26 | FC(F)(F)c1nnc2ccc(NCCc3c[nH]c4ccccc34)nn12 [SRI-41639] |  |  | > 100 |  | inhibition at 100 µM [1]: 17%; HuR N/C Imax % Inh (HuR; Concn 100 uM): 49%
27 | CN1CCN(Cc2ccc(-c3cnc4[nH]cc(-c5ccc6[nH]ccc6c5)c4c3)cc2)CC1 [SRI-41647] | 4 | 89 | > 25 |  | 
28 | O=C(c1ccc(=O)[nH]c1)N1CCN(C(=O)C2CC2c2ccccc2)CC1 (stereo not shown) [SRI-43653] | 0 | 0 |  |  | 
29 | c1cc2cn[nH]c2cc1-c1cnc2ccc(OC3CCOCC3)nn12 [Compound 58] | 23 | 82 |  | 3 | 
30 | Cc1n[nH]c2cc(-c3cnc4ccc(NC5CCOCC5)nn34)ccc12 [Compound 31, 3-(3-Methyl-1H-indazol-6-yl)-N-(tetrahydro-2H-pyran-4-yl)imidazo[1,2-b]pyridazin-6-amine] |  |  |  | > 50 | 
